How the values were obtained:
[1] = biological target: T1, Adenosine receptor A1 (Rattus norvegicus) (UniProt P25099); assay: Displacement of [3H]DPCPX from adenosine A1 receptor in Wistar rat cerebral cortex at 10 uM by liquid scintillation counting relative to control; type: tissue-based
T1 sequence (whole entry): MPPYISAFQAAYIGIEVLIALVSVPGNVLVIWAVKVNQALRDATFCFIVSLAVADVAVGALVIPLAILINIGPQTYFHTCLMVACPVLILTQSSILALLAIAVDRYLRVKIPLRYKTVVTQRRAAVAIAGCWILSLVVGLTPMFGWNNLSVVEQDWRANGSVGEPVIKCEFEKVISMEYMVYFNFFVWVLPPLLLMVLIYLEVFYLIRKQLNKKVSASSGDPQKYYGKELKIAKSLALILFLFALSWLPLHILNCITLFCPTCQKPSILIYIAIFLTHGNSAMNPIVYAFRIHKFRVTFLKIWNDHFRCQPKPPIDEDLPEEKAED

[2] = biological target: T1, Adenosine receptor A1 (Rattus norvegicus); assay: Displacement of [3H]CCPA adenosine A1 receptor in Wistar rat cerebral cortex at 10 uM by liquid scintillation counting relative to control; type: tissue-based
Adenosine receptor A2a [3] = biological target: T2, Adenosine receptor A2a (Homo sapiens, UniProt P29274); assay: Displacement of [3H]ZM241385 from human recombinant adenosine A2A receptor expressed in CHO cells at 10 uM by liquid scintillation counting relative to control; type: cell-based
Adenosine receptor A2a [4] = biological target: T2, Adenosine receptor A2a; assay: Displacement of [3H]ZM241385 from human recombinant adenosine A2A receptor expressed in CHO cells by liquid scintillation counting; type: cell-based
Adenosine receptor A2a [5] = biological target: T2, Adenosine receptor A2a; assay: Displacement of [3H]CGS21680 from human recombinant adenosine A2A receptor expressed in CHO cells at 10 uM by liquid scintillation counting relative to control; type: cell-based
Adenosine receptor A2a [6] = biological target: T2, Adenosine receptor A2a; assay: Displacement of [3H]CGS21680 from human recombinant adenosine A2A receptor expressed in CHO cells by liquid scintillation counting; type: cell-based
[7] = biological target: T3, Adenosine receptor A3 (Homo sapiens) (UniProt P0DMS8); assay: Displacement of [3H]NECA from human recombinant adenosine A3 receptor expressed in CHO cells at 10 uM by liquid scintillation counting relative to control; type: cell-based
T3 sequence (whole entry): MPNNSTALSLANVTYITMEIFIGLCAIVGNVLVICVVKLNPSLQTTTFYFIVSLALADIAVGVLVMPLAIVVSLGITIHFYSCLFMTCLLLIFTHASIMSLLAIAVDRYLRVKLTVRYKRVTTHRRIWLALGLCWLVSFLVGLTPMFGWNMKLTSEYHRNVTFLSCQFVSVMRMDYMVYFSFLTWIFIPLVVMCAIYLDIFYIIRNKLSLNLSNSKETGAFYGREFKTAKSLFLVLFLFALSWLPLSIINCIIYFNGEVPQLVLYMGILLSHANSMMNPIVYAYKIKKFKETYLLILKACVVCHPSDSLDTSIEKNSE

Adenosine receptor A2a [8] = biological target: T2, Adenosine receptor A2a; settings: CHO
Description: Dissociation of [3H]ZM241385 from human adenosine A2A receptor expressed in CHO cells at 100 uM by liquid scintillation counting relative to control

Adenosine receptor A2a [9] = biological target: T2, Adenosine receptor A2a; settings: CHO; remark: listed apart in the source
Description: Displacement of [3H]ZM241385 from human adenosine A2A receptor expressed in CHO cells assessed as time course of dissociation at 10 uM by liquid scintillation counting relative to control

Adenosine receptor A1 [10] = biological target: T4, Adenosine receptor A1 (Rattus norvegicus, UniProt P25099); assay: Displacement of [3H]DPCPX from adenosine A1 receptor in Wistar rat cerebral cortex by liquid scintillation counting; type: tissue-based
T4 sequence (P25099 whole entry): T1 sequence (whole entry)

Adenosine receptor A1 [11] = biological target: T4, Adenosine receptor A1; assay: Displacement of [3H]CCPA from adenosine A1 receptor in Wistar rat cerebral cortex by liquid scintillation counting; type: tissue-based
Aorta [12] = assay: Vasorelaxation activity in Wistar rat endothelium-intact aortic ring assessed as inhibition of noradrenaline-induced contraction after 20 mins; settings: read-out: pIC50 (converted)
Aorta [13] = assay: Vasorelaxation activity in Wistar rat endothelium-intact aortic ring assessed as inhibition of noradrenaline-induced contraction at 10 uM after 20 mins; type: functional
Aorta [14] = assay: Potentiation of CGS-21680-induced vasorelaxation activity in Wistar rat endothelium-intact aortic ring assessed as inhibition of noradrenaline-induced contraction at 10 uM after 20 mins; type: functional
Aorta [15] = assay: tissue or blood; settings: Rattus norvegicus, Wistar, 20 min, read-out: pIC50 (converted)
Adenosine receptor A3 = biological target: T5, Adenosine receptor A3 (Homo sapiens, UniProt P0DMS8); assay: Displacement of [3H]NECA from human recombinant adenosine A3 receptor expressed in CHO cells by liquid scintillation counting; type: cell-based
T5 sequence (P0DMS8 whole entry): T3 sequence (whole entry)

T2 sequence (P29274 whole entry): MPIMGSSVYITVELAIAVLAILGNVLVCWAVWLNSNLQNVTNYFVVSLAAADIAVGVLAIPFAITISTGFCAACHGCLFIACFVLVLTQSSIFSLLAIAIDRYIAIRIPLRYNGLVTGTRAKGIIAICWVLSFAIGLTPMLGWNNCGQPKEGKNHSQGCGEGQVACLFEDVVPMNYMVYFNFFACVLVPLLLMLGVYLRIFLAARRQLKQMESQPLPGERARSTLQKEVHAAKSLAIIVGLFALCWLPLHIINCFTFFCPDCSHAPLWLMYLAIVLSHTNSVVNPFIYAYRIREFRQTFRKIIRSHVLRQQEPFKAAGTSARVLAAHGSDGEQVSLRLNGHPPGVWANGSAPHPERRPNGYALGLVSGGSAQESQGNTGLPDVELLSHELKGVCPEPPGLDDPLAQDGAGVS

Compound `O=C(Nc1ccc(F)cc1)Nc1ccc(Nc2nc(-c3ccccc3)nc3c2nnn3Cc2ccccc2)cc1` has an Activity [1] of 107%, an Activity [2] of 72% and an Activity (Adenosine receptor A2a [3]) of 167%. It also gave an EC50 (Adenosine receptor A2a [4]) of 16000 nM, an Activity (Adenosine receptor A2a [5]) of 176% and an EC50 (Adenosine receptor A2a [6]) of 9950 nM. The Activity [7] was 92%, the Kdiss (Adenosine receptor A2a [8]) was 0.052 s⁻¹ and the T1/2 (Adenosine receptor A2a [9]) was 13.2 s.

Compound `Nc1ccc(Nc2nc(-c3ccccc3)nc3c2ncn3Cc2ccccc2)cc1` has an Activity [1] of 46%, a Ki (Adenosine receptor A1 [10]) of 396 nM and an Activity [2] of 7%. It also gave a Ki (Adenosine receptor A1 [11]) of 294 nM, an Activity (Adenosine receptor A2a [3]) of 59% and a Ki (Adenosine receptor A2a [4]) of 5740 nM. The Activity (Adenosine receptor A2a [5]) was 44%, the Ki (Adenosine receptor A2a [6]) was 4170 nM and the Activity [7] was 56%.

For `CCNC(=O)[C@H]1O[C@@H](n2cnc3c(N)nc(NCCc4ccc(CCC(=O)O)cc4)nc32)[C@H](O)[C@@H]1O` [CGS-21680], the IC50 (Aorta [12]) was 263 nM, the Emax at 10 µM (Aorta [13]) was 76% and the Emax at 10 µM (Aorta [14]) was 91%. For the same compound, the IC50 (Aorta [15]) was 69.2 nM.

For `O=C(Nc1ccccc1)Nc1ccc(Nc2nc(-c3ccccc3)nc3c2ncn3Cc2ccccc2)cc1`, the Activity [1] was 101%, the Activity [2] was 73% and the Activity (Adenosine receptor A2a [3]) was 107%. It also gave an Activity (Adenosine receptor A2a [5]) of 74% and an Activity [7] of 53%.

`O=C(Nc1ccccc1)Nc1ccc(Nc2nc(-c3ccccc3)nc3c2nnn3Cc2ccccc2)cc1` showed an Activity [1] of 110%, an Activity [2] of 79% and an Activity (Adenosine receptor A2a [3]) of 133%. The Activity (Adenosine receptor A2a [5]) was 57% and the Activity [7] was 78%.

Compound `O=C(Nc1ccc(Nc2nc(-c3ccccc3)nc3c2ncn3Cc2ccccc2)cc1)Nc1ccc(C(F)(F)F)cc1` has an Activity [1] of 106%, an Activity [2] of 67% and an Activity (Adenosine receptor A2a [3]) of 149%. The Activity (Adenosine receptor A2a [5]) was 57%, the Activity [7] was 37% and the Ki (Adenosine receptor A3) was 5610 nM.

`O=C(Nc1ccc(F)cc1)Nc1ccc(Nc2nc(-c3ccccc3)nc3c2ncn3Cc2ccccc2)cc1` showed an Activity [1] of 105%, an Activity [2] of 85% and an Activity (Adenosine receptor A2a [3]) of 111%. The Activity (Adenosine receptor A2a [5]) was 83% and the Activity [7] was 70%.

With `Nc1ccc(Nc2nc(-c3ccccc3)nc3c2nnn3Cc2ccccc2)cc1` the Activity [1] was 33%, the EC50 (Adenosine receptor A1 [10]) was 750 nM and the Ki (Adenosine receptor A1 [10]) was 132 nM. For the same compound, the Activity [2] was 4%, the Ki (Adenosine receptor A1 [11]) was 103 nM and the Activity (Adenosine receptor A2a [3]) was 77%. For the same compound, the EC50 (Adenosine receptor A2a [4]) was 9740 nM, the Ki (Adenosine receptor A2a [4]) was 1300 nM and the Activity (Adenosine receptor A2a [5]) was 0%. It also gave a Ki (Adenosine receptor A2a [6]) of 280 nM, an Activity [7] of 49% and a Kdiss (Adenosine receptor A2a [8]) of 0.078 s⁻¹. The T1/2 (Adenosine receptor A2a [9]) was 8.89 s.

With `O=[N+]([O-])c1ccc(Nc2nc(-c3ccccc3)nc3c2ncn3Cc2ccccc2)cc1` the Activity [1] was 84%, the Ki (Adenosine receptor A1 [10]) was 699 nM and the Activity [2] was 2%. It also gave a Ki (Adenosine receptor A1 [11]) of 571 nM, an Activity (Adenosine receptor A2a [3]) of 84% and a Ki (Adenosine receptor A2a [4]) of 1900 nM. It also gave an Activity (Adenosine receptor A2a [5]) of 114% and an Activity [7] of 51%.

`O=[N+]([O-])c1ccc(Nc2nc(-c3ccccc3)nc3c2nnn3Cc2ccccc2)cc1` was tested, and the Activity [1] was 105%, the Activity [2] was 33% and the Activity (Adenosine receptor A2a [3]) was 98%. For the same compound, the Activity (Adenosine receptor A2a [5]) was 96% and the Activity [7] was 58%.

With `COc1ccc(NC(=O)Nc2ccc(Nc3nc(-c4ccccc4)nc4c3ncn4Cc3ccccc3)cc2)cc1` the Activity [1] was 107%, the Activity [2] was 68% and the Activity (Adenosine receptor A2a [3]) was 166%. It also gave an Activity (Adenosine receptor A2a [5]) of 120% and an Activity [7] of 56%.

Work on `COc1ccc(NC(=O)Nc2ccc(Nc3nc(-c4ccccc4)nc4c3nnn4Cc3ccccc3)cc2)cc1` yielded an Activity [1] of 105%, an Activity [2] of 74% and an Activity (Adenosine receptor A2a [3]) of 142%. It also gave an Activity (Adenosine receptor A2a [5]) of 59% and an Activity [7] of 58%.

For `O=C(Nc1ccc(Nc2nc(-c3ccccc3)nc3c2nnn3Cc2ccccc2)cc1)Nc1ccc(C(F)(F)F)cc1`, the Activity [1] was 94%, the Activity [2] was 74% and the Activity (Adenosine receptor A2a [3]) was 127%. For the same compound, the Activity (Adenosine receptor A2a [5]) was 180% and the Activity [7] was 72%.
